In ChEMBL document CHEMBL6109165, “Novel Triazole-Substituted Imidazo[1,2-a]Pyrimidine Compounds as cGAS inhibitors” (ACS Med Chem Lett, 2025):
In brackets after ≈: the same amount, converted by molar mass.

How the values were obtained:
[1] = Solubility of compound in FaSSIF at pH 6.5 measured after 4 hrs by HPLC-UV analysis; format: physicochemical
[2] = target: Cyclic GMP-AMP synthase (Homo sapiens) (UniProt Q8N884); experiment: Inhibition of human recombinant cGAS (157 to 522 residues) extracted from Escherichia coli BL21(DE3)cells using GTP/ATP as substrate incubated for 1 to 2 hrs by Rapidfire 300 mass spectrometric analysis; settings: time 1-2 hrs
Chain of Cyclic GMP-AMP synthase (Homo sapiens) (Q8N884 whole entry, the tested form may be a part): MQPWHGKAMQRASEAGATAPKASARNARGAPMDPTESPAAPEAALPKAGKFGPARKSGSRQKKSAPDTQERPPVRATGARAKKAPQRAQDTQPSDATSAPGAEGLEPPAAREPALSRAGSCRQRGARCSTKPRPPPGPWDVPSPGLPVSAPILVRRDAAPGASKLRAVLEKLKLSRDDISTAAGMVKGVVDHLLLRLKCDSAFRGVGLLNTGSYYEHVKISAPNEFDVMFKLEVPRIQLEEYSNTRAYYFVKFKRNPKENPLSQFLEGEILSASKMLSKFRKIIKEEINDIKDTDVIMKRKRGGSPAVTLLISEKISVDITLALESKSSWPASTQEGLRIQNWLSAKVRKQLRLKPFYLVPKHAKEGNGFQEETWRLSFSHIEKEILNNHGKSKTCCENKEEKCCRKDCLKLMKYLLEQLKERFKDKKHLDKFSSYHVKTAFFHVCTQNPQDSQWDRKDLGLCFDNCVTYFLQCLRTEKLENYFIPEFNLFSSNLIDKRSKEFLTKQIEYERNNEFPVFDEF

[3] = target: Cyclic GMP-AMP synthase (Homo sapiens) (UniProt Q8N884); experiment: Inhibition of cGAS in human whole blood incubated for 6 hrs by cytometric bead array; format: tissue-based

Row | Compound | solubility at 4 h [1] | pXC50 [2] | pXC50 [3]
1 | O=C(CCCOP(=O)(O)O)OCn1cnc(-c2c(-c3nc(C(F)(F)F)nn3COC(=O)CCCOP(=O)(O)O)nc3ncccn23)c1.O=C(O)C(F)(F)F | > 1000 µg/mL | 7.5 | 6.5
2 | FC(F)(F)c1n[nH]c(-c2nc3ncccn3c2-c2c[nH]cn2)n1 | 4 µg/mL (≈ 12.5 µM) |  | 
3 | Fc1cnc2nc(-c3nc(C(F)(F)F)n[nH]3)c(-c3c[nH]cn3)n2c1 | 5 µg/mL (≈ 14.8 µM) | 8.4 | 6.5
4 | O=P(O)(O)OCn1nc(C(F)(F)F)nc1-c1nc2ncc(F)cn2c1-c1cnc[nH]1 | > 1000 µg/mL | 6.1 | 
